The values that follow come from PubChem BioAssay (NCI).

Common to all, as to assay: inhibition of tumour cell growth, NCI panel, 48 h
Experiment [1] has as its system PC-3 prostate.
Experiment [2] concerns HOP-62 NSCLC.
Experiment [3] deals with HCC-2998 colon.
Experiment [4] relates to ACHN renal.
Experiment [5] has as its system DU-145 prostate.
Experiment [6] deals with HL-60(TB) leukemia.
Experiment [7] relates to A549 NSCLC.
The test system of experiment [8] is SNB-75 CNS.
Experiment [9] concerns UACC-257 melanoma.
Experiment [10] concerns CCRF-CEM leukemia.

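Assay format: 96-well plates, 48-hour exposure. TGI: total growth inhibition.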

Regarding `COC(=O)[C@@H]1C[C@@]2(C3C=CN(C(=O)C(F)(F)F)C=C3)c3ccccc3N(C(=O)C(F)(F)F)[C@H]2N1C(=O)OC`, the TGI in experiment [1], in experiment [2], in [3], in experiment [4], in experiment [5] and in [6] was more than 100 µM throughout. In addition, the TGI in experiment [7], in [8], in experiment [9] and in experiment [10] was more than 100 µM throughout.
As to `CCc1c(C)c(C#N)c(=S)n(C2OC(CO)C(O)C(O)C2O)c1C` (stereo not given), the TGI in [1], in [2], in experiment [3], in [4], in [5] and in experiment [6] was more than 100 µM each time. Further, the TGI in [7], in [8], in experiment [9] and in [10] was more than 100 µM throughout.
As for `COc1cc2c(/C=C3/C(=O)N(c4ccccc4)c4ccccc43)c(Cl)[nH]c2cc1C`, the TGI is more than 33.3 µM in experiment [1]; more than 23.6 µM in [2]; 8.37 µM in [3]; more than 49.2 µM in experiment [4]; 9.82 µM in experiment [5]; more than 23.1 µM in experiment [6]. The TGI in experiment [7] was more than 38.4 µM; in experiment [8], 18.9 µM; in experiment [9], 21.3 µM; in experiment [10] it was more than 38.5 µM.
As for `O=C(CNc1ccc(Cl)cc1Cl)NC1C=Cc2ccc(S(=O)(=O)Nc3ccc(Cl)cc3Cl)cc2C1=O` (stereo not given), the TGI in experiment [1], in [2], in [3], in experiment [4], in experiment [5] and in [6] was more than 100 µM throughout. For the same compound, the TGI in experiment [7], in experiment [8], in experiment [9] and in experiment [10] was more than 100 µM throughout.
Take `Cn1cnc2c(sc3nc4ccccc4n32)c1=N`: the TGI in [1], in [2], in experiment [3], in [4], in experiment [5] and in experiment [6] was more than 100 µM in each case. For the same compound, the TGI in [7] was more than 100 µM; in experiment [8] it was 73.8 µM; in [9] it was more than 100 µM; in experiment [10], more than 100 µM.
As to `CCO/C(O)=C(/C(=N)N1CCCC1)C(=O)Nc1cccc(C(F)(F)F)c1`, the TGI in experiment [1], in experiment [2], in experiment [3], in experiment [4], in [5] and in [6] was more than 100 µM each time. Also, the TGI in [7] was more than 100 µM; in [8] it was 85.1 µM; in experiment [9] it was more than 100 µM; in experiment [10] it was more than 100 µM.
As for `O=C1c2cccc3cccc(c23)C(=O)N1CCCNOCCONCCCN1C(=O)c2cccc3cccc(c23)C1=O`, the TGI in experiment [1], in [2], in experiment [3], in experiment [4], in [5] and in [6] was more than 100 µM each time. Besides, the TGI is more than 100 µM in experiment [7], more than 100 µM in [8], more than 100 µM in experiment [9] and 91.6 µM in experiment [10].
For the compound `CC(=Nc1ccncc1)C(C)=Nc1ccncc1`, the TGI in [1] is 38.9 µM; in experiment [2] it was 49.4 µM; in experiment [3], 47.9 µM; in experiment [4], 27.5 µM; in experiment [5], more than 100 µM; in [6], 87.2 µM. The TGI in [7] was more than 100 µM; in [8], more than 100 µM; in experiment [9], more than 100 µM; in experiment [10] it was 85.5 µM.
Turning to `Cc1c2c(OCCCCN3CCN(c4ncccn4)CC3)nn(C)c(=O)c2c(C)n1-c1ccccc1`, the TGI came to 37.3 µM in experiment [1]; 57.8 µM in experiment [2]; 35 µM in experiment [3]; 31.3 µM in experiment [4]; 35.8 µM in experiment [5]; 47.2 µM in [6]. In addition, the TGI is 40.9 µM in experiment [7], 39.4 µM in experiment [8], 33.5 µM in experiment [9] and more than 100 µM in [10].
With `Cn1c2ccccc2c2c3c(c4c5ccccc5n(C)c4c21)C(=O)c1ccccc1C3=O`, the TGI is more than 100 µM in [1]; more than 100 µM in experiment [2]; more than 100 µM in experiment [3]; 97.3 µM in [4]; more than 100 µM in experiment [5]; more than 100 µM in [6]. Further, the TGI in experiment [7], in experiment [8], in experiment [9] and in experiment [10] was more than 100 µM throughout.
Turning to `C=CC[C@@]1(C(=O)OC)[C@H](Sc2ccccc2)C1(C)C`, the TGI was more than 100 µM in experiment [1]; more than 100 µM in [2]; 96.2 µM in experiment [3]; more than 100 µM in experiment [4]; more than 100 µM in experiment [5]; 45.8 µM in experiment [6]. The TGI in [7] was more than 100 µM; in experiment [8] it was 80.8 µM; in [9], 96.9 µM; in [10] it was more than 100 µM.
Consider `C=C(C)C1CC=C(C)C2(C1)OCC(C)(C)C(C)O2` (stereo not given), for which the TGI in experiment [1] was more than 100 µM; in experiment [2], 31.8 µM; in experiment [3], 93.2 µM; in experiment [4] it was 40.9 µM; in experiment [5], more than 100 µM; in experiment [6] it was 35.5 µM. Moreover, the TGI stood at 34.5 µM in [7], 48.2 µM in [8], 81.9 µM in [9] and 83.4 µM in [10].
Turning to `c1ccc2c(Cc3nnc4sc(SSc5nn6c(Cc7c[nH]c8ccccc78)nnc6s5)nn34)c[nH]c2c1`, the TGI is more than 100 µM in [1]; 30.2 µM in [2]; 30.4 µM in experiment [3]; more than 100 µM in experiment [4]; 67.4 µM in [5]; 75.7 µM in experiment [6]. The TGI in experiment [7] is 88.4 µM; in experiment [8], more than 100 µM; in [9] it was more than 100 µM; in [10], more than 100 µM.
As for `COC(=O)C1(Cc2ccccc2)Cc2ccccc2C1`, the TGI in [1] is more than 100 µM; in experiment [2], more than 100 µM; in experiment [3], 98.2 µM; in experiment [4], more than 100 µM; in experiment [5] it was more than 100 µM; in experiment [6] it was 45.8 µM. Further, the TGI in experiment [7] was more than 100 µM; in experiment [8] it was 96.2 µM; in experiment [9], 65.6 µM; in experiment [10], 42.4 µM.
As for `NNC(=S)N1CCN(C(=S)NN)CC1`, the TGI in experiment [1], in [2], in experiment [3], in experiment [4], in experiment [5] and in [6] was more than 100 µM throughout. The TGI in experiment [7], in experiment [8], in experiment [9] and in experiment [10] was more than 100 µM throughout.
Consider `CCOC(=O)C(CS)NC(=O)CCCCCCCC(=O)NC(CS)C(=O)OCC` (stereo not given), for which the TGI in experiment [1], in experiment [2], in [3], in experiment [4], in experiment [5] and in experiment [6] was more than 100 µM in each case. Further, the TGI in experiment [7], in experiment [8], in experiment [9] and in experiment [10] was more than 100 µM each time.
`CC(C)N(C)C(=O)C12C3C4C1C1C2C3C41C#N` (stereo not given): the TGI in experiment [1], in experiment [2], in [3], in experiment [4], in experiment [5] and in experiment [6] was more than 100 µM each time. Moreover, the TGI in [7], in [8], in experiment [9] and in experiment [10] was more than 100 µM in each case.
For the compound `CC(C)(C)OC[C@H](O)CC#N`, the TGI in [1], in [2], in experiment [3], in [4], in [5] and in [6] was more than 100 µM each time. The TGI in experiment [7], in experiment [8], in experiment [9] and in [10] was more than 100 µM throughout.
In the case of `O=c1[nH]c2cc3[nH]c4ncccc4c(=O)c3cc2[nH]1`, the TGI in [1], in experiment [2], in experiment [3], in experiment [4], in experiment [5] and in experiment [6] was more than 10 µM each time. The TGI in experiment [7], in [8], in experiment [9] and in [10] was more than 10 µM in each case.
Regarding `Cc1cc(=O)oc2cc(O)ccc12`, the TGI in experiment [1], in experiment [2], in experiment [3], in experiment [4], in experiment [5] and in experiment [6] was more than 100 µM each time. The TGI in experiment [7], in experiment [8], in experiment [9] and in experiment [10] was more than 100 µM throughout.
